What was measured:
integrin α2β1 = integrin α2β1 (Homo sapiens, UniProt P17301); details: according to manufacturer's instructions; read-out: half maximal effective concentration (EC50); cited from earlier work
co-cultured hDMCs = assay: Adhesion assay of co-cultured hDMCs to ECM components after integrin α2β1 inhibitor treatment; assay type: cell-based, human; details: 130 nM, 37° C., 30 min
Description: Adhesion assays identifying ECM components adhering to hDMC were performed using CytoSelect 48-well cell adhesion assay kits (Cell Biolabs Inc., San Diego, Calif.).
After detachment of naïve hDMCs and MΦ-co-cultured hDMCs, cell suspensions were prepared in serum-free DMEM. A total of 1.5×10^3 cells in 150 μl serum-free medium were added to each well and incubated for 1 hour at 37° C. After removal of the medium, the cells were washed four times with 150 μl PBS.
Cell staining and protein extraction were performed according to the manufacturer's instructions. Cellular adhesion was assessed by measuring the optical density at 560 nm on a Gemini XPS Microplate Reader (Molecular Devices, Sunnyvale, Calif.).
For an adhesion assay for the functional validation of integrin α2β1, the co-cultured hDMCs were incubated with 130 nM BTT 3033 at 37° C. for 30 min. After incubation, an adhesion assay was performed as described above.

hDMCs = assay: Cytotoxicity assay of BTT 3033 (cell viability assay, WST); assay type: cell-based, human; details: for Viability (A.U.): 37° C., 90 min
Description: To evaluate cell viability, EZ-Cytox cell viability assay kit (Daeillab Service Ltd., Seoul, Republic of Korea) was used according to the manufacturer's instructions. Water-soluble tetrazolium salt (WST) reagent was added to each well. After 1 hour of incubation, the absorbance of the supernatant was measured at the wavelength of 450 nm on a microplate absorbance reader. The viability was assessed by normalized absorbance values.
For cytotoxicity assay of BTT 3033, hDMCs were treated with BTT 3033 in a dose dependent manner and incubated at 37° C. for 90 min. After incubation, cell viability assay was performed.

Sequence of integrin α2β1 (P17301 30-1181): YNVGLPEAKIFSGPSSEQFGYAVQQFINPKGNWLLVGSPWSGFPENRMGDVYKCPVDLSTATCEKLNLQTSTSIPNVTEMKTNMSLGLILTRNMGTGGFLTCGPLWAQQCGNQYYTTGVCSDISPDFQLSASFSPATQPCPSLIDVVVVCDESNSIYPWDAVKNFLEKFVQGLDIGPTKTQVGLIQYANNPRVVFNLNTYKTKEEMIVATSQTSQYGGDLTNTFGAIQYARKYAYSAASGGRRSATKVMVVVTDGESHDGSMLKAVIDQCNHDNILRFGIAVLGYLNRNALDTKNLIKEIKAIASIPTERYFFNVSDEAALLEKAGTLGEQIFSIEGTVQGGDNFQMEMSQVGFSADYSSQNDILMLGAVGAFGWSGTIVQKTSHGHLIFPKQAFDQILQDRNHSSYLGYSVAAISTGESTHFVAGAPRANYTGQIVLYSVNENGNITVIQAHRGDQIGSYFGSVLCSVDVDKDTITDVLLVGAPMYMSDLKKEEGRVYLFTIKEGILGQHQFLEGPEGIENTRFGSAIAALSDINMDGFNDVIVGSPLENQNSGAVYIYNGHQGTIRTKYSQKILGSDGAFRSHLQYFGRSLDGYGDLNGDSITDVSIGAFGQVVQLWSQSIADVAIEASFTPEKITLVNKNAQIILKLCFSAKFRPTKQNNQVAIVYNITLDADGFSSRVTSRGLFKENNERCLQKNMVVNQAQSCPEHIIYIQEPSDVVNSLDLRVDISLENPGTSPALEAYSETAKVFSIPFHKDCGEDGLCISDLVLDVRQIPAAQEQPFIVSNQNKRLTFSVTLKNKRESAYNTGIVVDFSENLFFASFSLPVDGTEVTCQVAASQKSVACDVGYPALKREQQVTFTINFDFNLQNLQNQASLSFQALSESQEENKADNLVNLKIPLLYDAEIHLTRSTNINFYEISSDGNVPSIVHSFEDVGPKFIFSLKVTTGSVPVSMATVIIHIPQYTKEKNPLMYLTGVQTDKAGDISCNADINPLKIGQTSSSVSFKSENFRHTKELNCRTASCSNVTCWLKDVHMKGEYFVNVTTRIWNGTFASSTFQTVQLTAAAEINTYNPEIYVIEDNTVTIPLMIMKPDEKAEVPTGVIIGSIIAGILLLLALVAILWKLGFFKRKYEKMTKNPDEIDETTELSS
Sequence of integrin α2β1 (P05556 21-798 partner): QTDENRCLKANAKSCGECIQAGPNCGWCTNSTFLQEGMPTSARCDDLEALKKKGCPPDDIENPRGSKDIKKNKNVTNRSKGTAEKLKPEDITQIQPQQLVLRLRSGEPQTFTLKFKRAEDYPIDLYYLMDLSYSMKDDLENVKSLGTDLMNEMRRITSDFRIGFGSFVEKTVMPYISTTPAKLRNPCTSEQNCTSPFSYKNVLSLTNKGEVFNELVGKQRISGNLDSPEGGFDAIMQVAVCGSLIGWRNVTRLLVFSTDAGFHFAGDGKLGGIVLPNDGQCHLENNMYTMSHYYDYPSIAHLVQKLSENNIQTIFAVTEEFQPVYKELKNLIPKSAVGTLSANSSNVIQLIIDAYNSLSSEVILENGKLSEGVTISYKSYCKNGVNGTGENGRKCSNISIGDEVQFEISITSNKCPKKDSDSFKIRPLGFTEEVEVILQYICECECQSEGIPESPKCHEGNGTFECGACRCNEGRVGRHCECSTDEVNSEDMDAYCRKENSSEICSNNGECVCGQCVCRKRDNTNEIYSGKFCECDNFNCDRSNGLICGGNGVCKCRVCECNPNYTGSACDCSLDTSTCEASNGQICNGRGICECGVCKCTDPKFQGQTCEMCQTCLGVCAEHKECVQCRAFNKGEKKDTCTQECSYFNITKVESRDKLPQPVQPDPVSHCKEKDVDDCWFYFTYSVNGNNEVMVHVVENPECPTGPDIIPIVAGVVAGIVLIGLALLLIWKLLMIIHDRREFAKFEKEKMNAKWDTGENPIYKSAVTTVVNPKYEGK

Structure (SMILES): CN(c1ccc(NC(=O)Nc2ccccc2)cc1)S(=O)(=O)c1cnn(-c2ccc(F)cc2)c1 [BTT 3033, 1-(4-Fluorophenyl)-N-methyl-N-[4[[(phenylamino)carbonyl]amino]phenyl]-1H-pyrazole-4-sulfonamide]
- EC50 (integrin α2β1): 130 nM
- adhesion of co-cultured hDMCs to collagen I (co-cultured hDMCs; un-treated 0.43±0.03): 0.27±0.04
- adhesion of co-cultured hDMCs to collagen IV (co-cultured hDMCs; un-treated 0.44±0.08): 0.28±0.08
- reduction of adhesion of co-cultured hDMCs to collagen I (co-cultured hDMCs; vs un-treated, p<0.001): 37.8%
- reduction of adhesion of co-cultured hDMCs to collagen IV (co-cultured hDMCs; vs un-treated, p=0.057): 35.7%
- Viability (A.U.) (hDMCs; BTT 3033 16.25 nM): 0.896 ± 0.090 A.U.
- Viability (A.U.) (hDMCs; BTT 3033 32.50 nM): 0.844 ± 0.099 A.U.
- Viability (A.U.) (hDMCs; BTT 3033 65.00 nM): 0.899 ± 0.075 A.U.
- Viability (A.U.) (hDMCs; BTT 3033 130.00 nM): 0.800 ± 0.054 A.U.
- Viability (A.U.) (hDMCs; BTT 3033 260.00 nM): 0.854 ± 0.081 A.U.
- Viability (A.U.) (hDMCs; BTT 3033 520.00 nM): 0.827 ± 0.069 A.U.
- cytotoxicity (hDMCs; concentration from 16.25 to 520.00 nM): less than 20.0%

Source: US20210070866A1, “Pharmaceutical Composition For Preventing Or Treating Tissue Adhesion Comprising Integrin a2ß1 Inhibitors” (KOREA UNIVERSITY RESEARCH AND BUSINESS FOUNDATION, priority 2019, published 2021)
